Results published in ChEMBL document CHEMBL1201862, “PubChem BioAssay data set” (2004).
Calls of active or inactive are those of the source.

Legend:
[1] = target: T1, Short transient receptor potential channel 4 (Mus musculus, UniProt Q9QUQ5); experiment: mouse TRPC4 channel activators, dose response, cell-based, HEK293 TRPC4/mu-opioid, Fluo-4 calcium (AID 434937); format: functional
T1 sequence (Q9QUQ5 whole entry): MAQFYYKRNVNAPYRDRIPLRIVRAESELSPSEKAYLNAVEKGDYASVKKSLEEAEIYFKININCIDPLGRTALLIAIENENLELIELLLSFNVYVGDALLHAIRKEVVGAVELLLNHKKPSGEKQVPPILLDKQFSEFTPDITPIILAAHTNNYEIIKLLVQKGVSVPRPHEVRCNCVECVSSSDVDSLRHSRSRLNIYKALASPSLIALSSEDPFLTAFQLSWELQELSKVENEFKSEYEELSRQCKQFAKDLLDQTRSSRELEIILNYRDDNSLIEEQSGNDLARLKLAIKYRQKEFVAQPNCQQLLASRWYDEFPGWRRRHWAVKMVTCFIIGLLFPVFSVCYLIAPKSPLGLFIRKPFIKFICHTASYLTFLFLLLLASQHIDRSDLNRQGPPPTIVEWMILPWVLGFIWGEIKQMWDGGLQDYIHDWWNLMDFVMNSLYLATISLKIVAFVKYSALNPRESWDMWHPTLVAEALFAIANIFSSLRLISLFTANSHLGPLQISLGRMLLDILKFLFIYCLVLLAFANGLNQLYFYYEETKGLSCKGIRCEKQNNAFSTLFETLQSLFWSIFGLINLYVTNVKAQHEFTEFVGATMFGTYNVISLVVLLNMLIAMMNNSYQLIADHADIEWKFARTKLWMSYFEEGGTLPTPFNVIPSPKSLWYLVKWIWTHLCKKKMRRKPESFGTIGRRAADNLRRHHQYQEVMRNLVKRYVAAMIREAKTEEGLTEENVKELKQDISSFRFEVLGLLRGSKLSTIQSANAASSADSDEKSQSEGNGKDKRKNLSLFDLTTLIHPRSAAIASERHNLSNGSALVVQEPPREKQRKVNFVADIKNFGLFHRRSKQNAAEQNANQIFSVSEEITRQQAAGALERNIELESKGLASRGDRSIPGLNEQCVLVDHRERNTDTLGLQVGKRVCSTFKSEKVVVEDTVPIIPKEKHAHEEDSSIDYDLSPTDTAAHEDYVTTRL

[2] = target: Glyceraldehyde-3-phosphate dehydrogenase (Homo sapiens, UniProt P04406)
Chain of Glyceraldehyde-3-phosphate dehydrogenase (P04406 whole entry): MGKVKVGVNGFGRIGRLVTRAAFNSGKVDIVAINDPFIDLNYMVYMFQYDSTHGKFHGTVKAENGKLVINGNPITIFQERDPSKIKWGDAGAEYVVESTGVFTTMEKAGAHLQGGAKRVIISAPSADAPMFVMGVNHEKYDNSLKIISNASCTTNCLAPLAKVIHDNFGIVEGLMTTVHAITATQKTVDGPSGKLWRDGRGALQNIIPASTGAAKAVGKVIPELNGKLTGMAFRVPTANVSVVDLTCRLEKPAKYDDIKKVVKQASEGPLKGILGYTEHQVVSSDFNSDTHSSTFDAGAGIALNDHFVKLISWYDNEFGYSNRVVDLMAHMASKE

[3] = target: T2, Alkaline phosphatase, tissue-nonspecific isozyme (Homo sapiens, UniProt P05186); experiment: human TNAP enzyme inhibitors, SAR follow-up, biochemical, luminescent, dose response (AID 1056)
T2 sequence (P05186 whole entry): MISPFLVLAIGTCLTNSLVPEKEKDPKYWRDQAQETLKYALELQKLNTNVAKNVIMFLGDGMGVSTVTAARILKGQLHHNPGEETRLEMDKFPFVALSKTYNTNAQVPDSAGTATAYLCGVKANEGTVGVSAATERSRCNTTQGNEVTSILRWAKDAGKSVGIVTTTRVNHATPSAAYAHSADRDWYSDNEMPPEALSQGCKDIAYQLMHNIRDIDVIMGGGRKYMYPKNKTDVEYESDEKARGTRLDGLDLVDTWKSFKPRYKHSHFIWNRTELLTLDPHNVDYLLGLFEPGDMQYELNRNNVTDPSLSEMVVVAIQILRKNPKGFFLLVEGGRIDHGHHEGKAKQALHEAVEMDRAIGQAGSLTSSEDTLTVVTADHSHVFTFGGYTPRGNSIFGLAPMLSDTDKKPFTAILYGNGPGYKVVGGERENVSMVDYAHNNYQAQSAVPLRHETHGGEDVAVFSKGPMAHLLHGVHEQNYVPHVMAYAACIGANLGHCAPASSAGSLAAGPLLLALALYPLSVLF

[4] = target: Genome polyprotein (dengue virus type 2, UniProt P29990); experiment: Dengue-2 NS5 methyltransferase inhibitors, primary screen, biochemical, confirmation dose response (AID 588689); format: functional
Chain of Genome polyprotein (P29990 2492-3391 limits assumed): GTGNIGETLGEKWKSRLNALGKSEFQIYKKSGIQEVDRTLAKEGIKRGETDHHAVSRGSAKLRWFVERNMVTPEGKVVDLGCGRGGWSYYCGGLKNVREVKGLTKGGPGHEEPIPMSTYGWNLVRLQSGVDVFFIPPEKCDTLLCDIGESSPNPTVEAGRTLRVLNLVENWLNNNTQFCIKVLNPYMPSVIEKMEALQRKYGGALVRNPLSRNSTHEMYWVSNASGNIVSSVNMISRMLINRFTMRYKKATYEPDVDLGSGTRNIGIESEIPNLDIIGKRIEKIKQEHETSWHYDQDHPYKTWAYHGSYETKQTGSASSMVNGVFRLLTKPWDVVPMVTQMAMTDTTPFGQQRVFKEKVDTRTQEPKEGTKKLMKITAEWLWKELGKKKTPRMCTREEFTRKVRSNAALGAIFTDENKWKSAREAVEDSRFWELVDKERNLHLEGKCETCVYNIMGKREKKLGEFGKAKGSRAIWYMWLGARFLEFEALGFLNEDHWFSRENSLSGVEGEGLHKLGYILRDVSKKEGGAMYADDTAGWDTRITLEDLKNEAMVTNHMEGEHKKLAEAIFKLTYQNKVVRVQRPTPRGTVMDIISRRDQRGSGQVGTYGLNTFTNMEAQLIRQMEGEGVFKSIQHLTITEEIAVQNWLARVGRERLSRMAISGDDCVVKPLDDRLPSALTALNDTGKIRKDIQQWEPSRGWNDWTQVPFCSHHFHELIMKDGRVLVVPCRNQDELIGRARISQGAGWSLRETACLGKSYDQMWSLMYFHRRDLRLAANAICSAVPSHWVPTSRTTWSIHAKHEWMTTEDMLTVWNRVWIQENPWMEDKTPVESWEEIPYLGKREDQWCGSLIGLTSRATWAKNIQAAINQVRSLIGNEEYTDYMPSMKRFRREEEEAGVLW

[5] = target: T3, Tyrosine-protein phosphatase non-receptor type 7 (Homo sapiens, UniProt P35236); format: functional
T3 sequence (P35236 whole entry): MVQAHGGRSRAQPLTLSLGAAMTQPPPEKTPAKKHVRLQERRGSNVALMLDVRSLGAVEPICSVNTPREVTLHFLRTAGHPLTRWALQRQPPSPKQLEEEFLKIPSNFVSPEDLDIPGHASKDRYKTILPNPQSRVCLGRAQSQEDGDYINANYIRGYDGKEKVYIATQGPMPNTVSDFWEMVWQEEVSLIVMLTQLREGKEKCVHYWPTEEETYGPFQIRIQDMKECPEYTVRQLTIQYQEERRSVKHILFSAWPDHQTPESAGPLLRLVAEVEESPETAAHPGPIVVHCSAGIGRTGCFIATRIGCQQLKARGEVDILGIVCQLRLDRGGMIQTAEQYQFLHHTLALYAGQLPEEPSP

[6] = target: T4, Tyrosine-protein phosphatase non-receptor type 22 (Homo sapiens, UniProt Q9Y2R2); format: functional
T4 sequence (Q9Y2R2 whole entry): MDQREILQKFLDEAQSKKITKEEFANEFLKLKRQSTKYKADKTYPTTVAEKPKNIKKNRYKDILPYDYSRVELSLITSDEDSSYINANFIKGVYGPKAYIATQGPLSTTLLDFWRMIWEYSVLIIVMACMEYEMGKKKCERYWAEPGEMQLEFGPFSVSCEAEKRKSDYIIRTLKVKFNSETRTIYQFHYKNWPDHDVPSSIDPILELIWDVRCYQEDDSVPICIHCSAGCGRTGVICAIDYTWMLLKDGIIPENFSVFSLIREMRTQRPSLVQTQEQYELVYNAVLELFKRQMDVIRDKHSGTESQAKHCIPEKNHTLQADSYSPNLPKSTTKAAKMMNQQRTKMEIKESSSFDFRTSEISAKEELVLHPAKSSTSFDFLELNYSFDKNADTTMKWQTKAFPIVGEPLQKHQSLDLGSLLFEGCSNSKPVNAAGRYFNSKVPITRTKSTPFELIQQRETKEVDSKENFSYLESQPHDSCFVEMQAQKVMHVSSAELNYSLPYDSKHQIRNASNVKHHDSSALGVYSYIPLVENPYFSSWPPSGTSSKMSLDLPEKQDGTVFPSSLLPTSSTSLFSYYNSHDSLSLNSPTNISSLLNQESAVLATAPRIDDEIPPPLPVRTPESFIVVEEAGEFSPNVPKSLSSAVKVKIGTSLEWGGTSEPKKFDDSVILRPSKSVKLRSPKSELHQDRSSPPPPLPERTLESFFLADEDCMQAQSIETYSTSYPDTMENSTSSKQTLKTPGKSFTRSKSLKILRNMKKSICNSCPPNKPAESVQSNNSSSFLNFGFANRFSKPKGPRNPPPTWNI

[7] = target: T4, Tyrosine-protein phosphatase non-receptor type 22; format: functional; remark: listed apart in the source
[8] = target: T1, Short transient receptor potential channel 4; experiment: mouse TRPC4 channel inhibitors, dose response, cell-based, HEK293 TRPC4/mu-opioid, Fluo-4 calcium (AID 434942); format: functional;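 also: potency of inhibitors blocking the TRPC4 calcium response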
[9] = target: T5, Replicative DNA helicase DnaB (Mycobacterium tuberculosis, UniProt P9WMR3); experiment: DnaB intein splicing inhibitors, dose response, biochemical, cell-free fluorescence (AID 449749); format: functional
T5 sequence (P9WMR3 whole entry): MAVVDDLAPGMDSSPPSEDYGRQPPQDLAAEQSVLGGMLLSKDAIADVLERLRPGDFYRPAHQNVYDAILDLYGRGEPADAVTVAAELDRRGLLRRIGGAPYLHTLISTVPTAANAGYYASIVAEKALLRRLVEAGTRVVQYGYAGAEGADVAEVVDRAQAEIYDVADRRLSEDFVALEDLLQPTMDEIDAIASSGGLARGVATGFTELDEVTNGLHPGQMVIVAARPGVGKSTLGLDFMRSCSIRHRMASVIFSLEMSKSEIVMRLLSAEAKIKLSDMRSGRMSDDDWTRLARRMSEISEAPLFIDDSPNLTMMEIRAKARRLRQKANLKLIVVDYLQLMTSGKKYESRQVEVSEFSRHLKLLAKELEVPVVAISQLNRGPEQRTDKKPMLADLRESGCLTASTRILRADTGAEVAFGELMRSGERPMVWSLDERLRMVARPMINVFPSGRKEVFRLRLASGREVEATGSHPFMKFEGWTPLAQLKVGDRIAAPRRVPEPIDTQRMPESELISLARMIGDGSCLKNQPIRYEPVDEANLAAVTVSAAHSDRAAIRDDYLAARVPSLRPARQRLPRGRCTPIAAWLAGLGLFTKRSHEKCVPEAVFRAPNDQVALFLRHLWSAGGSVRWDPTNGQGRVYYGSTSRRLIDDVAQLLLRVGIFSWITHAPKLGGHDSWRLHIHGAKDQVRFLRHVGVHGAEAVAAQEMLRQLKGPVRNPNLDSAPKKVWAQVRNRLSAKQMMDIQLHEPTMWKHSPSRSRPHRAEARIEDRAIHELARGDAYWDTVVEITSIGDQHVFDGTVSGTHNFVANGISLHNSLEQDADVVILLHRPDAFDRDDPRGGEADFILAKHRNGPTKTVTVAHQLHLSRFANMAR

[10] = target: T6, Protein RecA (Mycobacterium tuberculosis, UniProt P9WHJ3); experiment: Fluorescence Cell-Free Homogeneous Dose Retest to Identify Inhibitors of RecA-Intein Splicing Activity. [Related pubchem assays (depositor defined):AID2097, AID2223, AID489010, AID492950]; format: functional
T6 sequence (P9WHJ3 whole entry): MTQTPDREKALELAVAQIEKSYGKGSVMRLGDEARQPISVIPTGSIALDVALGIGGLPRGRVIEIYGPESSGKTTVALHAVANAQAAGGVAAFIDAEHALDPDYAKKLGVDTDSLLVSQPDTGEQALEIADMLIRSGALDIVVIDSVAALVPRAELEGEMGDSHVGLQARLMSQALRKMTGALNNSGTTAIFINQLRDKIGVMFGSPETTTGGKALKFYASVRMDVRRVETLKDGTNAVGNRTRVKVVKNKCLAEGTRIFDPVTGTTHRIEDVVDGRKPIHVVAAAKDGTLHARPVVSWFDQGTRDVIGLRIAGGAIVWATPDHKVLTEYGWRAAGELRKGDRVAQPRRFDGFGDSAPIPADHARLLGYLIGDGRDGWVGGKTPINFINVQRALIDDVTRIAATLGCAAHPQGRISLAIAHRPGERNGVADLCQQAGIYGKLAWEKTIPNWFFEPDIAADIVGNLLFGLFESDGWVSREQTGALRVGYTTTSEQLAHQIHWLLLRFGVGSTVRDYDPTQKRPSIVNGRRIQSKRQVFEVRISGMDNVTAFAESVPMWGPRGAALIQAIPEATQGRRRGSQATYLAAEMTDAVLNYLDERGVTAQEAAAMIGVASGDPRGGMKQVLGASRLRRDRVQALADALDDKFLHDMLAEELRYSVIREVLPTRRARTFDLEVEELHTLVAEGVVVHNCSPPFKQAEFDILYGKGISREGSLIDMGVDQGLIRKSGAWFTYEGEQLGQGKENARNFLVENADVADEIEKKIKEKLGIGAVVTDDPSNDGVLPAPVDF

[11] = target: G-protein coupled receptor 55 (Homo sapiens, UniProt Q9Y2T6); experiment: GPR55 agonists via beta-arrestin recruitment, primary screen, imaging, U2OS cells, beta-arrestin-GFP redistribution (AID 1961); format: functional
Chain of G-protein coupled receptor 55 (Q9Y2T6 whole entry): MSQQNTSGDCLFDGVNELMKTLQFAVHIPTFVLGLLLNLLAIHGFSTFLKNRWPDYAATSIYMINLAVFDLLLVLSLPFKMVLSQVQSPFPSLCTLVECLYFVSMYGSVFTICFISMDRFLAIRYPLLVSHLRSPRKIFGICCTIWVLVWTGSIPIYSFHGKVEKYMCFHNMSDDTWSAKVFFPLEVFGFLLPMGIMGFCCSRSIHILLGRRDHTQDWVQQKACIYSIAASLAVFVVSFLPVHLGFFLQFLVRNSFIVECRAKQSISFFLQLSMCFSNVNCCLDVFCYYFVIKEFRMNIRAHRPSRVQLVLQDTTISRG

[12] = target: T7, Microphthalmia-associated transcription factor (Homo sapiens, UniProt O75030); experiment: TRPM1 promoter luciferase signal decrease, dose response, MITF inhibitor project, cell-based, SK-MEL-5, cherry-picked, set 3 (AID 493073); format: functional
T7 sequence (O75030 whole entry): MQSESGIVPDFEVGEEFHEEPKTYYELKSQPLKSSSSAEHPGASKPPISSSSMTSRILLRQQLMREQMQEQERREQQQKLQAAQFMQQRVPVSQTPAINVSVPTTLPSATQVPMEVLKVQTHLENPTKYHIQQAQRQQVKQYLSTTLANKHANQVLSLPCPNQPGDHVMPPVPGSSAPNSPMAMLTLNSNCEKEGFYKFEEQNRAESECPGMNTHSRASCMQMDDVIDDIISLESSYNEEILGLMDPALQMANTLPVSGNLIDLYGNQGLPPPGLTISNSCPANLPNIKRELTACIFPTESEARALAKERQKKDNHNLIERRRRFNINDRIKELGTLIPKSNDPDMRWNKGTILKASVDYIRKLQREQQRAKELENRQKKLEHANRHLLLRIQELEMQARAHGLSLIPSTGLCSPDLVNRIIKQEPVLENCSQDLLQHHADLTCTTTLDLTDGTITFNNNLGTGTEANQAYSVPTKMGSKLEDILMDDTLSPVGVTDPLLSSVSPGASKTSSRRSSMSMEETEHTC

[13] = target: SUMO-activating enzyme (Homo sapiens, UniProt Q9UBT2); experiment: SUMOylation inhibitor hit validation, confirmation, SUMOylation inhibitor project, biochemical, AlphaScreen (AID 2018); format: functional
Chain of SUMO-activating enzyme (Q9UBE0 whole entry): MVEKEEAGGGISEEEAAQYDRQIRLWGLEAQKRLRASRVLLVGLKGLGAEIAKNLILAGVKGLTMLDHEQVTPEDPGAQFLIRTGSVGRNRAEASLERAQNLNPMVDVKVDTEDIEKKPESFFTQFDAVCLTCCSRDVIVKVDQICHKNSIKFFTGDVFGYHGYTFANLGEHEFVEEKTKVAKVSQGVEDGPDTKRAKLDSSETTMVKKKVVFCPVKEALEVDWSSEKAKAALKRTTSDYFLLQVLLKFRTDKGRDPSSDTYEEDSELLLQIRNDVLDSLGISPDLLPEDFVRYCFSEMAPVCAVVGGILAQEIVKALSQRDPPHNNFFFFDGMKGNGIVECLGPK
Chain of SUMO-activating enzyme (Q9UBT2 whole entry): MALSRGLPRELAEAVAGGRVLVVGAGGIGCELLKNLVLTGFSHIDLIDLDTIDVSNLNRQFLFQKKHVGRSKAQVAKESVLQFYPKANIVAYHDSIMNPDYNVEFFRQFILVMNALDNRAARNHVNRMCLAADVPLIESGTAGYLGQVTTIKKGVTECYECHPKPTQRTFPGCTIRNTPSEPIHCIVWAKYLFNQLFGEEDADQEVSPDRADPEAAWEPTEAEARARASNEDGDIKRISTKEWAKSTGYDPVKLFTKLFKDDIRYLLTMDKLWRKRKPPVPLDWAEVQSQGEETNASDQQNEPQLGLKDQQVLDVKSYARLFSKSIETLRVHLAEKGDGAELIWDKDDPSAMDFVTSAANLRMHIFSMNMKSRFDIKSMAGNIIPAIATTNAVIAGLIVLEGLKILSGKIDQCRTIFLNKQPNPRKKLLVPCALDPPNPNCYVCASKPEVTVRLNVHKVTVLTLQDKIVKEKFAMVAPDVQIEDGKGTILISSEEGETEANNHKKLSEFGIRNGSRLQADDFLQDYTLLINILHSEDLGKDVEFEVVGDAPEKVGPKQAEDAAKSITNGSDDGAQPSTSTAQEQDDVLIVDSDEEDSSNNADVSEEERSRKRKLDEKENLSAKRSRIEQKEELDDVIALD

[14] = system: H9c2; experiment: cells; format: functional, cell-based; conditions: Rattus norvegicus, H9c2, Myocardium;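 also: confirmatory concentration-response retest of ultra-high-throughput screening hits for modulation of myocardial damage; cell death induced by hydrogen peroxide oxidative stress; compound pretreatment for 60 min then peroxide exposure for 2 h; potency is for protecting the cells against peroxide damage rather than for killing them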

## CC1CCCN(CCCNC(=O)c2ccc3c(c2)N(Cc2ccccc2F)C(=O)c2ccccc2S3(=O)=O)C1 (stereo not given)
[1]
  EC50: 0.944 µM (active)

## Cn1nc(-c2ccc(F)cc2)cc1C(=O)O
[2]
  IC50: > 100 µM (not active)
[3]
  IC50: > 100 µM (inactive)

## COc1cccc(Cc2nnc(N3C(=O)[C@H]4CCCC[C@H]4C3=O)[nH]2)c1
[2]
  IC50: > 100 µM (not active)
[3]
  IC50: 1.63 µM (active)

## CCCOC(=O)c1c(-c2ccc(C)cc2C)csc1NC(=O)C1C2CCC(O2)C1C(=O)O (stereo not given)
[4]
  IC50: 55 µM (active)
[5]
  IC50: > 79.4 µM (inactive)
[6]
  IC50: > 79.4 µM (inactive)
[7]
  IC50: > 79.4 µM (inactive)

## O=C1c2ccccc2C(=O)N1c1nnc(-c2ccc(Cl)cc2)[nH]1
[2]
  IC50: > 100 µM (not active)
[3]
  IC50: 2.49 µM (active)

## C/C=C(\C)CN1CCC(n2nccc2NC(=O)CCc2ccccc2)CC1
[1]
  EC50: 0.267 µM (active)
[8]
  EC50: 0.299 µM (active)

## CCSC1(SCC)N=C(N)C2(C#N)C(c3ccc(F)cc3)C12C#N (stereo not given)
[9]
  AC50: 6.54 µM (active)
[10]
  EC50: 12.5 µM (active)
[11]
  EC50: 1.86 µM (active)
[12]
  AC50: 14 µM (active)

## CN(C)C1(CNC(=O)c2ccc(Cl)c(S(=O)(=O)NCc3ccco3)c2)CCCCC1
[1]
  EC50: 0.119 µM (active)

## Nc1c(C(=O)N/N=C/c2cccnc2)oc2nc(-c3ccco3)cc(-c3ccco3)c12
[13]
  IC50: 8.88 µM (active)
[14]
  IC50: > 79 µM (inactive)
